Entries after “also recorded” stand apart in the source; their conditions may differ.
Experiments:
Format in all cases: cell-based, human
VSMCs [1] = experiment: Transwell insert migration assay; conditions: 12-h incubation, 10^−7 M; control 48.4%
Procedure: VSMCs (75,000 cells/200 μL) were suspended in M231 containing 1% charcoal striped FBS and either 0.1% ethanol (vehicle control) or the corresponding steroids and seeded onto insert wells (transwell filter with 12-μm pores; EMD Millipore). The inserts were then placed in 24-well plates containing 500 μL M231 with 1% charcoal striped FBS. After 12 h, cells remaining on the upper surface of the filter were removed with a cotton swab. Migrated cells were trypsinized, centrifuged, and resuspended in 200 μL of M231 medium. The cell suspensions were mixed with 200 μL 10% ethanol containing 0.4% Trypan blue dye and the live cell number was counted by Countess Automated Cell Counter (Invitrogen). See further details in SI Materials and Methods.
Cultured VSMCs were grown in T-75 cell culture flasks in M231 (Life Technologies) with smooth muscle growth supplement (Life Technologies) with 100 U/mL penicillin, 100 μg/mL streptomycin, 0.25 μg/mL fungizone. Confluent VSMCs were washed twice with 1×PBS to remove residual serum, and then trypsinized, resuspended (75,000 cells per 200 μL per well) in M231 with 1% charcoal striped FBS with 0.1% ethanol (vehicle, control), 10^−7 M MPA (Sigma-Aldrich), 10^−7 M ETO (Organon), or 10^−7 M P4 (Sigma-Aldrich)±rCCL2 (R&D Systems) and seeded on insert wells (transwell filter with 12-μm pores; EMD Millipore), which were then placed in 24-well plates containing 500 μL M231 with 1% charcoal striped FBS. After 12 h, cells remaining on the upper surface of the filter were removed with a cotton swab. Migrated cells attached to the lower surface of each insert or to the surface of lower wells were collected by trypsinization, followed by centrifugation and resuspension in 200 μL of M231 medium. The cell suspensions were mixed with 200 μL 10% ethanol containing 0.4% Trypan blue dye (selectively stains only dead cells blue, whereas live cells with intact cell membranes remain unstained) for 5 min. A mixture of 100 μL M231 and 100 μL 10% ethanol containing 0.4% Trypan blue dye was used as a negative control. To detect live cell numbers, 10 μL of final cell/Trypan blue dye suspension from each treatment condition was pipetted into Countess Cell Counting Chamber Slide and counted by using Countess Automated Cell Counter (Invitrogen). The counting procedure was performed in duplicate.

VSMCs [2] = experiment: Whole genome microarray analysis (Illumina HumanHT-12 v4) of cultured VSMCs treated with progestins; conditions: VSMCs treated by ETO
From the text: Cultured VSMCs (n=3) treated with control medium or medium containing medroxyprogesterone acetate (MPA, 10^−7 M), or etonogestrel (ETO, 10^−7 M) were processed for whole genome analyses using Illumina Human microarray kit. After qRT-PCR confirmation of several up and down regulated genes from microarray data, Ingenuity Pathway Analysis (IPA) determined relevant upstream signaling of LAPC altered gene expression. To investigate the role of genes and relevant signaling molecules identified by IPA, VSMCs (n=3) treated with MPA or ETO±1 or 10 ng/ml recombinant CCL2 (rCCL2)±STAT1 inhibitor, 5′-methyl-thioadenosine (MTA, 100 μM) were analyzed by BrdU incorporation proliferation, TUNEL based ELISA apoptosis and Transwell insert migration assays.
(§1) VSMCs were thawed and cultured in medium 231 (M231; Life Technologies) with smooth muscle growth supplement (5% FBS; 2 ng/mL human basic fibroblast growth factor, 0.5 ng/mL human epidermal growth factor, 5 ng/mL heparin, 0.2 μg/mL insulin and 5 μg/mL BSA; Life Technologies) with 100 U/mL penicillin, 100 μg/mL streptomycin, 0.25 μg/mL fungizone. Confluent VSMCs were washed twice with 1×PBS to remove residual serum, passaged in 96-well or 6-well plates and incubated in parallel in M231 with 1% charcoal striped FBS with 0.1% ethanol (vehicle, control) or 10^−7 M MPA (Sigma-Aldrich) or 10^−7 M ETO (Organon) or 10^−7 M P4 (Sigma-Aldrich) for 15 min, 6, 48, and 72 h. VSMCs were then washed with ice-cold PBS and stored at −80° C. for further RNA and protein analyses.
Total RNA was isolated using Qiagen miRNeasy Mini Kit (Qiagen) and RNeasy MinElute Cleanup Kit (Qiagen). The quality of isolated RNAs was confirmed using an Agilent 2100 Bioanalyzer. Microarray analysis was limited to those specimens in which RNA Integrity Number exceeded 8. Microarray processes were performed in the Keck Biotechnology Resource Laboratory at Yale University (New Haven, Conn.) using Illumina Human HT-12 v4 BeadChip (Illumina). Raw data without normalization were analyzed by GeneSpring GX12.5 software (Agilent Technologies-Silicon Genetics). Normalization was performed as described (35). Genes with a fold-change >1.25 and a P value<0.05 were considered differentially expressed. Ingenuity Pathway Analysis (IPA) software (Qiagen) explored molecular and biological networks related to differentially expressed genes.

VSMCs [3] = experiment: qRT-PCR of H19, TMEM119, RARRES1 and CCL2 mRNA in cultured VSMCs; conditions: vs control
Procedure: as §1
For qRT-PCR, 500 ng total RNA from each treatment was reverse transcribed by using RETROscript kit (Ambion). qRT-PCR was performed using the TaqMan Gene Expression Assay Kits for H19, TMEM119, RARRES1, and CCL2 (TaqMan ID # Hs00262142_g1, Hs01938722_m1, Hs00161204_m1 and Hs00234140_m1, respectively; Life Technologies) as described previously (36). Expression of the target mRNAs was normalized to β-actin levels, and the 2^−ΔΔCT was used to calculate relative expression levels.

C#C[C@]1(O)CC[C@H]2[C@@H]3CCC4=CC(=O)CC[C@@H]4[C@H]3C(=C)C[C@@]21CC [ETO, etonogestrel]
migration rate (VSMCs [1]): 29.6%
Fold-change, ABI gene family, member 3 (NESH) binding protein (ABI3BP) (VSMCs [2]): −1.636
Fold-change, Actin, γ 2, smooth muscle, enteric (ACTG2) (VSMCs [2]): 1.514
Fold-change, Alcohol dehydrogenase 1A (class I), alpha polypeptide (ADH1A) (VSMCs [2]): 1.54
Fold-change, Bone morphogenetic protein 6 (BMP6) (VSMCs [2]): 1.467
Fold-change, Chemokine (C-C motif) ligand 2 (CCL2) (VSMCs [2]): −2.211
Fold-change, Claudin 11 (oligodendrocyte transmembrane protein) (CLDN11) (VSMCs [2]): −1.544
Fold-change, Collagen, type VIII, α 1, transcript variant 2 (COL8A1) (VSMCs [2]): 1.44
Fold-change, Complement factor B (CFB) (VSMCs [2]): −1.835
Fold-change, Cysteine-rich secretory protein LCCL domain containing 2, (CRISPLD2) (VSMCs [2]): 1.661
Fold-change, DNA-damage regulated autophagy modulator 1 (DRAM1) (VSMCs [2]): −1.535
Fold-change, Decorin, transcript variant A2, (DCN) (VSMCs [2]): 1.762
Fold-change, EF-hand domain family, member D1 (EFHD1) (VSMCs [2]): 1.471
Fold-change, Endoglin (Osler-Rendu-Weber syndrome 1) (ENG) (VSMCs [2]): −1.428
Fold-change, Filaggrin (FLG) (VSMCs [2]): −1.59
Fold-change, Growth arrest-specific 6 (GAS6) (VSMCs [2]): 1.4661
Fold-change, H19, imprinted maternally expressed transcript noncoding RNA (H19) (VSMCs [2]): 2.497
Fold-change, Hypothetical protein FLJ40504 (FLJ40504) (VSMCs [2]): −1.625
Fold-change, Indolethylamine N-methyltransferase (INMT) (VSMCs [2]): 1.443
Fold-change, Intelectin 2 (ITLN2) (VSMCs [2]): 1.655
Fold-change, LY6/PLAUR domain containing 1, transcript variant 1 (LYPD1) (VSMCs [2]): −1.447
Fold-change, Latexin (LXN) (VSMCs [2]): −1.779
Fold-change, Leptin (obesity homolog, mouse) (LEP) (VSMCs [2]): 1.602
Fold-change, Mitogen-activated protein kinase kinase 2 (MAP2K2) (VSMCs [2]): −1.437
Fold-change, PREDICTED: miscRNA (LOC399965) (VSMCs [2]): −1.534
Fold-change, PREDICTED: similar to LYPDC1 protein (LOC100134073) (VSMCs [2]): −1.536
Fold-change, PREDICTED: similar to filaggrin (LOC730833) (VSMCs [2]): −1.474
Fold-change, Pleckstrin homology-like domain, family A, member 1 (PHLDA1) (VSMCs [2]): −1.487
Fold-change, Potassium voltage-gated channel, shaker-related subfamily, 0 member 1, transcript variant2 (KCNAB1) (VSMCs [2]): −1.492
Fold-change, Prostaglandin-endoperoxide synthase 1, transcript variant 2 (PTGS1) (VSMCs [2]): 1.555
Fold-change, RAB11 family interacting protein 1 (class I), transcript variant 3, (RAB11FIP1) (VSMCs [2]): 1.55
Fold-change, Retinoic acid receptor responder (tazarotene induced) 1, transcript variant 1, (RARRES1) (VSMCs [2]): −2.146
Fold-change, Retinoic acid receptor responder (tazarotene induced) 1, transcript variant 2, (RARRES1) (VSMCs [2]): −1.809
Fold-change, Superoxide dismutase 2, mitochondrial, transcript variant 2, (SOD2) (VSMCs [2]): −1.778
Fold-change, Thioredoxin domain containing 5, transcript variant 2 (TXNDC5) (VSMCs [2]): 1.429
Fold-change, Transmembrane 4 L six family member 1 (TM4SF1) (VSMCs [2]): −1.467
Fold-change, Transmembrane protein 119 (TMEM119) (VSMCs [2]): 1.448
Fold-change, Wingless-type MMTV integration site family, member 5A (WNT5A) (VSMCs [2]): 1.504
Fold-change, cDNA FLJ20769 fis, clone COL06674 (PREDICTED: Receptor tyrosine kinase-like orphan receptor 1) (VSMCs [2]): 1.528
Fold-change, Matrix Gla protein (MGP) (VSMCs [2]; table entry 6): 1.581
Fold-change, Matrix Gla protein (MGP) (VSMCs [2]; table entry 8): 1.554
CCL2 mRNA levels (VSMCs [3]): down-regulated; also recorded: significant inhibition
H19 mRNA (VSMCs [3]): up-regulated
RARRES1 mRNA (VSMCs [3]): down-regulated
TMEM119 mRNA (VSMCs [3]): up-regulated

Reference: patent publication US20180078615A1, “USE OF CCL2 TO INHIBIT ABNORMAL UTERINE BLEEDING” (UNIVERSITY OF SOUTH FLORIDA, priority 2015, published 2018)
